Measurements as given in patent US9422277B2, “Tricyclic substituted thiadiazine dioxide compounds as BACE inhibitors, compositions and their use” (Merck Sharp & Dohme Corp., priority 2012, dated 2016).

Key:
[1] = biological target: soluble human BACE1 catalytic domain (Homo sapiens (Human), UniProt P56817); assay: BACE1 HTRF FRET Assay; format: biochemical; details: Ki calculated from IC50 using the Cheng-Prusoff equation
From the text: A homogeneous time-resolved FRET assay can be used to determine IC50 values for inhibitors of the soluble human BACE1 catalytic domain. This assay monitors the increase of 620 nm fluorescence that resulted from BACE1 cleavage of an APPswedish APP^swe mutant peptide FRET substrate (QSY7-[…]-Europium-amide). This substrate contains an N-terminal QSY7 moiety that serves as a quencher of the C-terminal Europium fluorophore (620 nm Em). In the absence of enzyme activity, 620 nm fluorescence is low in the assay and increased linearly over 3 hours in the presence of uninhibited BACE1 enzyme Inhibition of BACE1 cleavage of the QSY7-APP^swe-Eu substrate by inhibitors is manifested as a suppression of 620 nm fluorescence.
Reactions are initiated by addition of 10 μl of 600 nM QSY7-APP^swe-Eu substrate (200 nM final) to give a final reaction volume of 30 μl in a 384 well Nunc HTRF plate. The reactions are incubated at 30° C. for 1.5 hours. The 620 nm fluorescence is then read on a Rubystar HTRF plate reader (BMG Labtechnologies) using a 50 millisecond delay followed by a 400 millisecond acquisition time window Inhibitor IC50 values are derived from non-linear regression analysis of concentration response curves.

[2] = biological target: purified human autoBACE-2 (Homo sapiens (Human), UniProt Q9Y5Z0); assay: BACE-2 Assay (BACE-HTRF assay); format: biochemical; details: Ki calculated from IC50 using the Cheng-Prusoff equation; read-out: BACE2 Ki
purified human autoBACE-2, sequence (Q9Y5Z0 63-473 limits assumed): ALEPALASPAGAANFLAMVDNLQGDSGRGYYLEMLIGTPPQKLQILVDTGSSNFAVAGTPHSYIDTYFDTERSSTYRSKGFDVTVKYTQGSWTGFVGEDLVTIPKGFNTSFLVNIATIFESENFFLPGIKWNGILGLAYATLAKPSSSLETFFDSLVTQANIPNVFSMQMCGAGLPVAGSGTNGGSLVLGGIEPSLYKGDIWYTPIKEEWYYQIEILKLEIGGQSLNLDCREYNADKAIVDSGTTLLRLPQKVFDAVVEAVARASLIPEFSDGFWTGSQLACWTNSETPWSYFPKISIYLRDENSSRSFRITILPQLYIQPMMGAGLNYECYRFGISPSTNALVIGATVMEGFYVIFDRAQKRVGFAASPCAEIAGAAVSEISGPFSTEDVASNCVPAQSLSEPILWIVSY
Protocol: Inhibitor IC50s at purified human autoBACE-2 are determined in a time-resolved endpoint proteolysis assay that measures hydrolysis of the QSY7-[…]-Eu-amide FRET peptide substrate (BACE-HTRF assay). BACE-mediated hydrolysis of this peptide results in an increase in relative fluorescence (RFU) at 620 nm after excitation with 320 nm light Inhibitor compounds, prepared at 3× the desired final concentration in 1×BACE assay buffer (20 mM sodium acetate pH 5.0, 10% glycerol, 0.1% Brij-35) supplemented with 7.5% DMSO are pre-incubated with an equal volume of autoBACE-2 enzyme diluted in 1×BACE assay buffer (final enzyme concentration 1 nM) in black 384-well NUNC plates for 30 minutes at 30° C. […] DMSO is present at 5% final concentration in the assay. Following laser excitation of sample wells at 320 nm, the fluorescence signal at 620 nm is collected for 400 ms following a 50 μs delay on a RUBYstar HTRF plate reader (BMG Labtechnologies). Raw RFU data is normalized to maximum (1.0 nM BACE/DMSO) and minimum (no enzyme/DMSO) RFU values. IC50s are determined by nonlinear regression analysis (sigmoidal dose response, variable slope) of percent inhibition data with minimum and maximum values set to 0 and 100 percent respectively. Similar IC50s are obtained when using raw RFU data. The Ki values are calculated from the IC50 using the Cheng-Prusoff equation.

human P-glycoprotein = human P-glycoprotein (Homo sapiens (Human), UniProt P08183); assay: Efflux by human P-glycoprotein (Pgp Mdr1 efflux ratio); format: in vitro ADME
human P-glycoprotein, sequence (P08183 whole entry): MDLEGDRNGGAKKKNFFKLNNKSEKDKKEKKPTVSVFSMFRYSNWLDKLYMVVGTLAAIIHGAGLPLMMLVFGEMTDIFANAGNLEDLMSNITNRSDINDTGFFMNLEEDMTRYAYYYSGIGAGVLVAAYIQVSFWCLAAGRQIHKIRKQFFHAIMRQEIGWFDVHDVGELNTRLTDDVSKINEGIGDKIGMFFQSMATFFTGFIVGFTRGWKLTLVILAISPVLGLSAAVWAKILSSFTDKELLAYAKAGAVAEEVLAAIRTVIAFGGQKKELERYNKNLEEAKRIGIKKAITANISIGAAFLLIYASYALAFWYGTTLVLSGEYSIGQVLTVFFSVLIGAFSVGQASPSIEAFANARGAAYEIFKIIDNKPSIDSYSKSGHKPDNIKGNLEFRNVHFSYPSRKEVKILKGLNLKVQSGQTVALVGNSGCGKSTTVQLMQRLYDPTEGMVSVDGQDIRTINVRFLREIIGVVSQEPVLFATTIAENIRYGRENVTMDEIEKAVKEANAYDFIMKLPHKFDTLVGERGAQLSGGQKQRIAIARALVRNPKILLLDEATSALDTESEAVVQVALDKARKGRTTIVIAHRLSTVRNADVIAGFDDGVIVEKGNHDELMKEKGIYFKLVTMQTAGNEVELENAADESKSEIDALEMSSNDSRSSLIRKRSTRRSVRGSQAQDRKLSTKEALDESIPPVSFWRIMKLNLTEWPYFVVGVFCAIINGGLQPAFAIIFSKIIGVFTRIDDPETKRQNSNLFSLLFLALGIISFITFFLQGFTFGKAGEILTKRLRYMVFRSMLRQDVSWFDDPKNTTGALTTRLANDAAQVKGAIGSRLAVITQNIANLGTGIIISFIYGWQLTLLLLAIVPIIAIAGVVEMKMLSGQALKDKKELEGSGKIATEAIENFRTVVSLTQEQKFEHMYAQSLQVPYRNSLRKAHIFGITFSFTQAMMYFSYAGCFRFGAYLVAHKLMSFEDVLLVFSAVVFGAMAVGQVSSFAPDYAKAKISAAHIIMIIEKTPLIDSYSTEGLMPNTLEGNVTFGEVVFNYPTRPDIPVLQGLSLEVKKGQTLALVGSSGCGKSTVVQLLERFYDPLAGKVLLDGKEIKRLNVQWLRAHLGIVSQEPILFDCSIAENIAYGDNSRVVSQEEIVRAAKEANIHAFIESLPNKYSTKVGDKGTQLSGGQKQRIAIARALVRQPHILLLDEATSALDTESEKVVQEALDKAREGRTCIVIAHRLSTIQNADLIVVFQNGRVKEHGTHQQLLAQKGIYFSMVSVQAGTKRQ

soluble human BACE1 catalytic domain, sequence (P56817 75-416): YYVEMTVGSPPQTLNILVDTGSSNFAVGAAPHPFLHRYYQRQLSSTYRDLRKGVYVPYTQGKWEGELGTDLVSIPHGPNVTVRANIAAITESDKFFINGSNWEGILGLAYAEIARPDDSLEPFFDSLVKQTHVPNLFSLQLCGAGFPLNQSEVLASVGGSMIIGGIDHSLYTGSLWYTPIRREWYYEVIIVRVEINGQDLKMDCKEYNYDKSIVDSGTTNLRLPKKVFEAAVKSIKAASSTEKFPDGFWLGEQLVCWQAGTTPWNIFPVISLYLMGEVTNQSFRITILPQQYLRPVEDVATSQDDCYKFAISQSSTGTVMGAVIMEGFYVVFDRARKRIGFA

What does the source list for CN1C(=N)N[C@](C)(c2sc(-c3nnc(-c4ccc(F)cc4)o3)cc2Cl)CS1(=O)=O [Example 22]?
Ki [1]: 65.5 nM; Ki [2]: 13 nM; Pgp Mdr1 ER (human P-glycoprotein): 1.4

For CN1C(=N)N[C@](C)(c2sc(-c3nnc(-c4ccc(C(F)(F)F)cc4)o3)cc2Cl)CS1(=O)=O [Example 18], which Ki [1] is on record?
Its Ki is 58.9 nM.

What about the Ki [2] of the same compound?
The Ki was 155 nM.

What about the “Pgp Mdr1 ER” value (human P-glycoprotein) of the same compound?
Its value is 0.7.

Which Ki [1] does the source give for COc1ccc(-c2nnc(-c3cc(Cl)c([C@]4(C)CS(=O)(=O)N(C)C(=N)N4)s3)o2)cc1 [Example 17] here?
Its Ki is 38.6 nM.

What about the Ki [2] of the same compound?
Its Ki is 34.6 nM.

What about the “Pgp Mdr1 ER” value (human P-glycoprotein) of the same compound?
Its value is 1.0.

What does the source list for CN1C(=N)N[C@](C)(c2sc(-c3nnc(-c4ccccc4)o3)cc2Cl)CS1(=O)=O [Example 20]?
Ki [1]: 106 nM; Ki [2]: 7.76 nM; Pgp Mdr1 ER (human P-glycoprotein): 1.3

With CN1C(=N)N[C@](C)(c2sc(-c3nnc(-c4ccc(Cl)cc4)o3)cc2Cl)CS1(=O)=O [Example 16] as the compound, how does the Ki [1] read?
Its Ki is 28.8 nM.

And the Ki [2]?
The Ki was 13.8 nM.

And the “Pgp Mdr1 ER” value (human P-glycoprotein)?
Its value is 1.1.

Which results are given for CN1C(=N)N[C@](C)(c2sc(-c3nnc(-c4ccc(Cl)cc4)o3)cc2F)CS1(=O)=O [Example 19]?
Ki [1]: 31.9 nM; Ki [2]: 13.6 nM; Pgp Mdr1 ER (human P-glycoprotein): 1.0

For CN1C(=N)N[C@](C)(c2sc(-c3nnc(-c4cscn4)o3)cc2Cl)CS1(=O)=O [Example 37], which Ki [1] is on record?
Its Ki is 662 nM.

What about the Ki [2] of the same compound?
The Ki was 69.1 nM.

What does the source list for CN1C(=N)N[C@](C)(c2sc(-c3nnc(-c4cnco4)o3)cc2Cl)CS1(=O)=O [Example 40]?
Ki [1]: 250 nM; Ki [2]: 142 nM

What does the source list for CN1C(=N)N[C@](C)(c2sc(-c3nnc(-c4cccnc4)o3)cc2Cl)CS1(=O)=O [Example 29]?
Ki [1]: 1050 nM; Ki [2]: 698 nM

Which results are given for CN1C(=N)N[C@](C)(c2sc3c(-c4coc(-c5ccc(F)cc5)n4)cccc3c2F)CS1(=O)=O [Example 82]?
Ki [1]: 4890 nM; Ki [2]: 2940 nM

What does the source list for CN1C(=N)N[C@](C)(c2sc3c(-c4cnc(-c5ccc(F)cc5)o4)cccc3c2F)CS1(=O)=O [Example 83]?
Ki [1]: 3180 nM; Ki [2]: 3320 nM

How did the Ki [1] turn out when CN1C(=N)N[C@](C)(c2sc(-c3nnc(-c4cnccn4)o3)cc2Cl)CS1(=O)=O [Example 27] was run?
Its Ki is 683 nM.

And the Ki [2]?
The Ki was 284 nM.

Which Ki [1] does the source give for CN1C(=N)N[C@](C)(c2sc(-c3cc(-c4ccccc4)on3)cc2Cl)CS1(=O)=O [Example 12] here?
The Ki was 1170 nM.

And the Ki [2]?
The Ki was 364 nM.

For CN1C(=N)N[C@](C)(c2sc(-c3nnc(-c4ccccn4)o3)cc2Cl)CS1(=O)=O [Example 21], which Ki [1] is on record?
Its Ki is 555 nM.

What about the Ki [2] of the same compound?
Its Ki is 58.4 nM.

Which Ki [1] does the source give for CCCCCOc1ccc(-c2nnc(-c3cc(Cl)c([C@]4(C)CS(=O)(=O)N(C)C(=N)N4)s3)o2)cc1 [Example 64] here?
Its Ki is 160 nM.

What about the Ki [2] of the same compound?
Its Ki is 356 nM.

What does the source list for CN1C(=N)N[C@](C)(c2sc(-c3nnc(-c4ccc(C5CCC(F)(F)C5)cc4)o3)cc2Cl)CS1(=O)=O (stereo partly shown) [Example 67]?
Ki [1]: 1110 nM; Ki [2]: 1870 nM

Which Ki [1] does the source give for CN1C(=N)N[C@](C)(c2cc(-c3nnc(-c4cnco4)o3)ccc2F)CS1(=O)=O [Example 26] here?
The Ki was 1240 nM.

What about the Ki [2] of the same compound?
Its Ki is 802 nM.

CN1C(=N)N[C@](C)(c2sc(-c3ccc(-c4nnc(C5CC5)o4)[nH]3)cc2Cl)CS1(=O)=O [Example 10] was tested. Which Ki [1] did it give?
The Ki was 87 nM.

And the Ki [2]?
Its Ki is 11.3 nM.

What does the source list for CN1C(=N)N[C@](C)(c2cc(-c3nnc(-c4ccon4)o3)ccc2F)CS1(=O)=O [Example 55]?
Ki [1]: 4940 nM; Ki [2]: 737 nM

Which results are given for CN1C(=N)N[C@](C)(c2sc(-c3nnc(-c4ccc5scnc5c4)o3)cc2Cl)CS1(=O)=O [Example 73]?
Ki [1]: 171 nM; Ki [2]: 336 nM

What does the source list for CN1C(=N)N[C@](C)(c2sc(-c3nnc(-c4cocn4)o3)cc2Cl)CS1(=O)=O [Example 42]?
Ki [1]: 925 nM; Ki [2]: 142 nM

CCCOc1ccc(-c2nnc(-c3cc(Cl)c([C@]4(C)CS(=O)(=O)N(C)C(=N)N4)s3)o2)cc1 [Example 62] was tested. Which Ki [1] did it give?
The Ki was 84.2 nM.

And the Ki [2]?
Its Ki is 313 nM.

Which results are given for CN1C(=N)N[C@](C)(c2cc(-c3nnc(C4Cc5ccccc5C4)o3)ccc2F)CS1(=O)=O [Example 52]?
Ki [1]: 7690 nM; Ki [2]: 2680 nM

CN1C(=N)N[C@](C)(c2sc(-c3nnc(C4Cc5ccccc5C4)o3)cc2Cl)CS1(=O)=O [Example 38] was tested. Which Ki [1] did it give?
The Ki was 255 nM.

What about the Ki [2] of the same compound?
Its Ki is 124 nM.

What does the source list for CN1C(=N)N[C@](C)(c2cc(-c3nnc(-c4cncs4)o3)ccc2F)CS1(=O)=O [Example 50]?
Ki [1]: 9920 nM; Ki [2]: 4220 nM

Which Ki [1] does the source give for CN1C(=N)N[C@](C)(c2sc(-c3nnc(-c4cnn(C)c4)o3)cc2Cl)CS1(=O)=O [Example 45] here?
Its Ki is 407 nM.

And the Ki [2]?
Its Ki is 226 nM.

Which results are given for CN1C(=N)N[C@](C)(c2sc(-c3ncc(-c4ccccn4)[nH]3)cc2Cl)CS1(=O)=O [Example 3]?
Ki [1]: 470 nM; Ki [2]: 87.9 nM

Which Ki [1] does the source give for CN1C(=N)N[C@](C)(c2sc(-c3nnc(-c4ccc(N5CCCC5=O)cc4)o3)cc2Cl)CS1(=O)=O [Example 69] here?
Its Ki is 1030 nM.

And the Ki [2]?
Its Ki is 1070 nM.

Which results are given for CN1C(=N)N[C@](C)(c2sc(-c3nnc(-c4ccc5c(c4)C(=O)CC5)o3)cc2Cl)CS1(=O)=O [Example 74]?
Ki [1]: 887 nM; Ki [2]: 1990 nM

With CN1C(=N)N[C@](C)(c2cc(-c3nnc(-c4ncco4)o3)ccc2F)CS1(=O)=O [Example 53] as the compound, how does the Ki [1] read?
The Ki was 3420 nM.

And the Ki [2]?
Its Ki is 186 nM.

Which results are given for CN1C(=N)N[C@](C)(c2sc(-c3nnc(-c4ccc(-n5cnnn5)cc4)o3)cc2Cl)CS1(=O)=O [Example 70]?
Ki [1]: 180 nM; Ki [2]: 1350 nM

Which results are given for CN1C(=N)N[C@](C)(c2sc(-c3nnc(-c4cnn5ccccc45)o3)cc2Cl)CS1(=O)=O [Example 35]?
Ki [1]: 2370 nM; Ki [2]: 450 nM
